From US20250320252A1 (The Scripps Research Institute, priority 2021, published 2025)
Read-outs that look alike come from different tables or passages of the source. Numbered stars: 1 amine (or outer) side, 2 acyl side, 3 side chain; on linkers, the order of the positions; unused ones are H or OH. Bridge positions count the residues as written; N and C are the ends. Square brackets hold non-standard residues; d marks the D form. Peptide text beside a SMILES is read from it. X2 = O=C(O)CCCCCCCCCCCCCCCCCCC(=O)N[C@@H](CCCCNC(=O)CCOCCOCCNC(=O)CCOCCOCCNC(=O)CCC(=O)N(CCNC(=O)C[*:1])CCNC(=O)C[*:2])C(=O)O; Aib = CC(C)(N)C(=O)O

Tests used:
human GLP-1R = molecular target: T1, human GLP-1R (Homo sapiens, UniProt P43220); experiment: In vitro receptor activation reporter assay (CRE-Luc), HEK293-GLP-1R-CRE; type: cell-based
T1 construct: expressed in transfected cells
T1 sequence (P43220 24-463): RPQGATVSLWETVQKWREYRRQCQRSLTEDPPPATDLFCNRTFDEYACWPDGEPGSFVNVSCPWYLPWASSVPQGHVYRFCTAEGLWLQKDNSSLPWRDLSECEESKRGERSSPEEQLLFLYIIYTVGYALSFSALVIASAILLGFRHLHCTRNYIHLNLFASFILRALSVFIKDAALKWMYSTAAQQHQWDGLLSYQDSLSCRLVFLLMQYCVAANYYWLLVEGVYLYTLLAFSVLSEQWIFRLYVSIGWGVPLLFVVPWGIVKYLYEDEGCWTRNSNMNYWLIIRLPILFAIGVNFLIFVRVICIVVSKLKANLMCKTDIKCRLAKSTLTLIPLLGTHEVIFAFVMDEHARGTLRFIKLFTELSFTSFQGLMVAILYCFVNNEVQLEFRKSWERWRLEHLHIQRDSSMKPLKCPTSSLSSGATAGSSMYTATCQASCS
Description: (§1) The EC50 of each peptide was determined using GraphPad Prism 6 software (GraphPad, San Diego, CA).
HEK293 cells were infected with lentivirus encoding firefly luciferase gene under the control of cAMP responsive element (CRE) promoter (Qiagen, The Netherlands) and then were selected using 1 g/mL puromycin (Life Technologies, Carlsbad) for 1 week. The surviving cells (referred to as CRE-HEK293) were expanded and then transfected with a G418 selective mammalian expression plasmid encoding human GLP-1R. In brief, GLP-1R plasmid was transfected into CRE-HEK293 cells using Lipofectamine 2000 and selected with 400 g/mL Geneticin (Life Technologies, Carlsbad, CA). Single colony stable cell line overexpressing CRE-luciferase and GLP1R was then established for in vitro activity assay.

human GIPR = molecular target: T2, human GIPR (Homo sapiens, UniProt P48546); experiment: In vitro receptor activation reporter assay (CRE-Luc), HEK293-GIPR-CRE; type: cell-based
T2 construct: expressed in transfected cells
T2 sequence (P48546 22-466): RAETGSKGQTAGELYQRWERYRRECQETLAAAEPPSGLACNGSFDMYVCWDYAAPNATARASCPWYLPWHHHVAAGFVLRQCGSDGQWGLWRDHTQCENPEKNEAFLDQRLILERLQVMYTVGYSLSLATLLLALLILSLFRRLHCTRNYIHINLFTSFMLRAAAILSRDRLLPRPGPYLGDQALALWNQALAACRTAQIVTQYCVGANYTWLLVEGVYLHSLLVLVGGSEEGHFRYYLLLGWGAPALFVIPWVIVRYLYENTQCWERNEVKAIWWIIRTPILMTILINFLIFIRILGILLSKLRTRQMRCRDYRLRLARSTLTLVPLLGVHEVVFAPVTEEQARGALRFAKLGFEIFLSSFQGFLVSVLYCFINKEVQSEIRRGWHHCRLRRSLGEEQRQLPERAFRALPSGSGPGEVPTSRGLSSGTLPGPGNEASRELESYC
Excerpt: HEK293 cells were infected with lentivirus encoding firefly luciferase gene under the control of cAMP responsive element (CRE) promoter (Qiagen, The Netherlands) and then were selected using 1 g mL^−1 puromycin (Life Technologies, Carlsbad) for 1 week. The surviving cells (referred to as CRE-HEK293) were expanded and then transfected with a G418 selective mammalian expression plasmid encoding human GLP-1R or GIPR. In brief, GLP-1R or GIPR plasmid was transfected into CRE-HEK293 cells using Lipofectamine 2000 and selected with 400 g mL^−1 Geneticin (Life Technologies, Carlsbad, CA). Single colony stable cell line overexpressing CRE-luciferase and GLP-1R or GIPR (HEK293-GLP-1R-CRE or HEK293-GIPR-CRE) was then established for in vitro activity assay.
as §1

[1] = unnumbered table (Table 10), average of runs, read-out: GLP1R (nM) [EC50] average
[2] = unnumbered table (Table 10), run 02/19, read-out: GLP1R (nM) [EC50] 02/19
[3] = unnumbered table (Table 10), run 3/25, read-out: GLP1R (nM) [EC50] 3/25
[4] = unnumbered table (Table 10), run 03/26, read-out: GLP1R (nM) [EC50] 03/26
[5] = Table 9, read-out: EC50 [nM] GIPR

SMILES	EC50 (human GLP-1R; [1]) [nM]	EC50 (human GLP-1R; [2]) [nM]	EC50 (human GLP-1R; [3]) [nM]	EC50 (human GLP-1R; [4]) [nM]	EC50 (human GIPR; [5]) [nM]	further results
CC[C@H](C)[C@H](NC(=O)[C@H](CO)NC(=O)[C@H](Cc1ccc(O)cc1)NC(=O)[C@H](CC(=O)O)NC(=O)[C@H](CO)NC(=O)[C@@H](NC(=O)[C@H](Cc1ccccc1)NC(=O)[C@@H](NC(=O)CNC(=O)[C@H](CCC(=O)O)NC(=O)C(C)(C)NC(=O)[C@@H](N)Cc1ccc(O)cc1)[C@@H](C)O)[C@@H](C)O)C(=O)N[C@@H](Cc1ccc(O)cc1)C(=O)N[C@@H](CC(C)C)C(=O)N[C@@H](CC(=O)O)C(=O)N[C@@H](CCCCN)C(=O)N[C@H]1CSCC(=O)NCCN(C(=O)CCC(=O)NCCOCCOCCC(=O)NCCOCCOCCC(=O)NCCCC[C@H](NC(=O)CCCCCCCCCCCCCCCCCCC(=O)O)C(=O)O)CCNC(=O)CSC[C@@H](C(=O)N[C@@H](Cc2c[nH]c3ccccc23)C(=O)N[C@@H](CC(C)C)C(=O)N[C@@H](CC(C)C)C(=O)N[C@@H](C)C(=O)NCC(=O)NCC(=O)N2CCC[C@H]2C(=O)N[C@@H](CO)C(=O)N[C@@H](CO)C(=O)NCC(=O)N[C@@H](C)C(=O)N2CCC[C@H]2C(=O)N2CCC[C@H]2C(=O)N2CCC[C@H]2C(=O)N[C@@H](CO)C(N)=O)NC(=O)[C@H](C(C)C)NC(=O)[C@H](Cc2ccccc2)NC(=O)[C@H](CCC(=O)O)NC(=O)C(C)(C)NC(=O)[C@H](C)NC(=O)[C@H](C)NC1=O [C(17-24) - C20L5A, YAibEGT-FTSDY-SIYLD-KXAAAib-EFVXW-LLAGG-PSSGA-PPPS-NH2 (where each X is C)]	0.09	0.07	0.1	0.09	0.05	EC50 (human GLP-1R; Table 9, read-out: EC50 [nM] GLP1R): 0.11 nM; EC50 (human GIPR; unnumbered table (Table 10), average of runs, read-out: GIPR (nM) [EC50] average): 0.03 nM; EC50 (human GIPR; unnumbered table (Table 10), run 02/19, read-out: GIPR (nM) [EC50] 02/19): 0.04 nM; EC50 (human GIPR; unnumbered table (Table 10), run 03/25, read-out: GIPR (nM) [EC50] 03/25): 0.02 nM; EC50 (human GIPR; unnumbered table (Table 10), run 03/26, read-out: GIPR (nM) [EC50] 03/26): 0.03 nM
CC[C@H](C)[C@H](NC(=O)[C@H](CO)NC(=O)[C@H](Cc1ccc(O)cc1)NC(=O)[C@H](CC(=O)O)NC(=O)[C@H](CO)NC(=O)[C@@H](NC(=O)[C@H](Cc1ccccc1)NC(=O)[C@@H](NC(=O)CNC(=O)[C@H](CCC(=O)O)NC(=O)C(C)(C)NC(=O)[C@@H](N)Cc1ccc(O)cc1)[C@@H](C)O)[C@@H](C)O)C(=O)N[C@@H](Cc1ccc(O)cc1)C(=O)N[C@H]1CCCCNC(=O)CN(C(=O)CCNC(=O)CCOCCOCCNC(=O)CCOCCOCCNC(=O)CC[C@H](NC(=O)CCCCCCCCCCCCCCCCC(=O)O)C(=O)O)CC(=O)NCCCC[C@@H](C(=O)N[C@@H](Cc2ccccc2)C(=O)N[C@H](C(=O)N[C@@H](CC(N)=O)C(=O)N[C@@H](Cc2c[nH]c3ccccc23)C(=O)N[C@@H](CC(C)C)C(=O)N[C@@H](CC(C)C)C(=O)N[C@@H](C)C(=O)NCC(=O)NCC(=O)N2CCC[C@H]2C(=O)N[C@@H](CO)C(=O)N[C@@H](CO)C(=O)NCC(=O)N[C@@H](C)C(=O)N2CCC[C@H]2C(=O)N2CCC[C@H]2C(=O)N2CCC[C@H]2C(=O)N[C@@H](CO)C(N)=O)C(C)C)NC(=O)C(C)(C)NC(=O)[C@H](C)NC(=O)[C@H](C)NC(=O)[C@H](CCC(N)=O)NC(=O)[C@H](CCCCN)NC(=O)[C@H](CC(=O)O)NC1=O [mCLZ715, YAibEGT-FTSDY-SIYXD-KQAAAib-XFVNW-LLAGG-PSSGA-PPPS-NH2 (where each X is K)]						EC50 (human GLP-1R; Table 7, read-out: EC50 [nM] GLP1R): 0.02 nM
CC[C@H](C)[C@H](NC(=O)[C@H](CC(C)C)NC(=O)[C@H](Cc1c[nH]c2ccccc12)NC(=O)[C@@H]1CSCC(=O)NCCN(C(=O)CCC(=O)NCCOCCOCCC(=O)NCCOCCOCCC(=O)NCCCC[C@H](NC(=O)CCCCCCCCCCCCCCCCCCC(=O)O)C(=O)O)CCNC(=O)CSC[C@H](NC(=O)[C@H](CCCCN)NC(=O)[C@H](CC(=O)O)NC(=O)[C@H](CC(C)C)NC(=O)[C@H](Cc2ccc(O)cc2)NC(=O)[C@@H](NC(=O)[C@H](CO)NC(=O)[C@H](Cc2ccc(O)cc2)NC(=O)[C@H](CC(=O)O)NC(=O)[C@H](CO)NC(=O)[C@@H](NC(=O)[C@H](Cc2ccc(O)cc2)NC(=O)[C@@H](NC(=O)CNC(=O)[C@H](CCC(=O)O)NC(=O)C(C)(C)NC(=O)[C@@H](N)Cc2ccc(O)cc2)[C@@H](C)O)[C@@H](C)O)[C@@H](C)CC)C(=O)N[C@@H](C)C(=O)N[C@@H](C)C(=O)NC(C)(C)C(=O)N[C@@H](CCC(=O)O)C(=O)N[C@@H](Cc2ccccc2)C(=O)N[C@@H](C(C)C)C(=O)N1)C(=O)N[C@@H](C)C(=O)NCC(=O)NCC(=O)N1CCC[C@H]1C(=O)N[C@@H](CO)C(=O)N[C@@H](CO)C(=O)NCC(=O)N[C@@H](C)C(=O)N1CCC[C@H]1C(=O)N1CCC[C@H]1C(=O)N1CCC[C@H]1C(=O)N[C@@H](CO)C(N)=O [6Y, 271, C(17-24) - C20L5A, YAibEGT-YTSDY-SIYLD-KXAAAib-EFVXW-LIAGG-PSSGA-PPPS-NH2 (where each X is C)] (H-Y[Aib]EGTYTSDYSIYLDKCAA[Aib]EFVCWLIAGGPSSGAPPPS-NH2; linker 17-24 via X2)	0.06	0.05	0.07	0.06		
CC[C@H](C)[C@H](NC(=O)[C@H](CC(C)C)NC(=O)[C@H](Cc1c[nH]c2ccccc12)NC(=O)[C@@H]1CSCC(=O)NCCN(C(=O)CCC(=O)NCCOCCOCCC(=O)NCCOCCOCCC(=O)NCCCC[C@H](NC(=O)CCCCCCCCCCCCCCCCCCC(=O)O)C(=O)O)CCNC(=O)CSC[C@H](NC(=O)[C@H](CCCCN)NC(=O)[C@H](CC(=O)O)NC(=O)[C@H](CC(C)C)NC(=O)[C@H](Cc2ccc(O)cc2)NC(=O)[C@@H](NC(=O)[C@H](CO)NC(=O)[C@H](Cc2ccc(O)cc2)NC(=O)[C@H](CC(=O)O)NC(=O)[C@H](CO)NC(=O)[C@@H](NC(=O)[C@H](Cc2ccccc2)NC(=O)[C@@H](NC(=O)CNC(=O)[C@H](CCC(=O)O)NC(=O)C(C)(C)NC(=O)[C@@H](N)Cc2ccc(O)cc2)[C@@H](C)O)[C@@H](C)O)[C@@H](C)CC)C(=O)N[C@@H](C)C(=O)N[C@@H](CCC(N)=O)C(=O)NC(C)(C)C(=O)N[C@@H](C)C(=O)N[C@@H](Cc2ccccc2)C(=O)N[C@@H](C(C)C)C(=O)N1)C(=O)N[C@@H](C)C(=O)N[C@@H](CCC(N)=O)C(=O)NCC(=O)N1CCC[C@H]1C(=O)N[C@@H](CO)C(=O)N[C@@H](CO)C(=O)NCC(=O)N[C@@H](C)C(=O)N1CCC[C@H]1C(=O)N1CCC[C@H]1C(=O)N1CCC[C@H]1C(=O)N[C@@H](CO)C(N)=O [19Q, 21A, 27I, 29Q, C(17-24) - C20L5A, YAibEGT-FTSDY-SIYLD-KXAQAib-AFVXW-LIAQG-PSSGA-PPPS-NH2 (where each X is C)]					0.02	
CC[C@H](C)[C@H](NC(=O)[C@H](CO)NC(=O)[C@H](Cc1ccc(O)cc1)NC(=O)[C@H](CC(=O)O)NC(=O)[C@H](CO)NC(=O)[C@@H](NC(=O)[C@H](Cc1ccccc1)NC(=O)[C@@H](NC(=O)CNC(=O)[C@H](CCC(=O)O)NC(=O)C(C)(C)NC(=O)[C@@H](N)Cc1ccc(O)cc1)[C@@H](C)O)[C@@H](C)O)C(=O)N[C@@H](Cc1ccc(O)cc1)C(=O)N[C@H]1CSCC(=O)NCCN(C(=O)CCC(=O)NCCOCCOCCC(=O)NCCOCCOCCC(=O)NCCCC[C@H](NC(=O)CCCCCCCCCCCCCCCCC(=O)O)C(=O)O)CCNC(=O)CSC[C@@H](C(=O)N[C@@H](Cc2ccccc2)C(=O)N[C@H](C(=O)N[C@@H](CC(N)=O)C(=O)N[C@@H](Cc2c[nH]c3ccccc23)C(=O)N[C@@H](CC(C)C)C(=O)N[C@@H](CC(C)C)C(=O)N[C@@H](C)C(=O)NCC(=O)NCC(=O)N2CCC[C@H]2C(=O)N[C@@H](CO)C(=O)N[C@@H](CO)C(=O)NCC(=O)N[C@@H](C)C(=O)N2CCC[C@H]2C(=O)N2CCC[C@H]2C(=O)N2CCC[C@H]2C(=O)N[C@@H](CO)C(N)=O)C(C)C)NC(=O)C(C)(C)NC(=O)[C@H](C)NC(=O)[C@H](C)NC(=O)[C@H](CCC(N)=O)NC(=O)[C@H](CCCCN)NC(=O)[C@H](CC(=O)O)NC1=O [C(14-21) - L5A, YAibEGT-FTSDY-SIYXD-KQAAAib-XFVNW-LLAGG-PSSGA-PPPS-NH2 (where each X is C)]					0.03	EC50 (human GIPR; Table 8, read-out: EC50 [nM] GIPR): 0.03 nM
